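Tested at 5 concentrations; 48 h exposure; 96-well plates; endpoints linearly interpolated, else capped at highest concentration. GI50 marks 50% less growth.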 The source made the active and inactive calls. Cut-off read from the data, not from the text of the source: active = GI50 up to about 1.1 µM and inactive = higher.
Tests used:
Assay in all cases: DTP human tumour cell line panel, 48 h
[1] = tested on: A498
[2] = tested on: SK-MEL-5
[3] = tested on: T47D
[4] = tested on: 786-0
[5] = tested on: ACHN
[6] = tested on: HOP-18
[7] = tested on: SNB-78
[8] = tested on: LXFL 529

Row | SMILES | GI50 [1] | GI50 [2] | GI50 [3] | GI50 [4] | GI50 [5] | GI50 [6] | GI50 [7] | GI50 [8]
1 | O=C1Cc2c(-c3ccccc3)cc(-c3cccc(Cl)c3)nc2-c2ccccc2N1 | 4.82 µM (inactive) | 9.91 µM (inactive) | 2.05 µM (inactive) | – | – | – | – | –
2 | O=c1ccn(CC2(CO)CC(Cc3ccccc3)C2)c(=O)[nH]1 (configuration not stated) | > 100 µM (inactive) | > 100 µM (inactive) | > 100 µM (inactive) | > 100 µM (inactive) | > 100 µM (inactive) | – | – | –
3 | CCCCCCCCCCCC1=C(O)C(=O)C=C(O)C1=O [EMBELIN] | 5.75 µM (inactive) | 4.84 µM (inactive) | – | – | – | 4.58 µM (inactive) | 9.66 µM (inactive) | –
4 | C#CC[C@@]12CC(=O)C[C@@H]1CCC1(C2)OCCO1.C#CC[C@]12CC(=O)CC[C@H]1CC(=O)C2 | > 100 µM (inactive) | > 100 µM (inactive) | – | – | – | 90.6 µM (inactive) | > 100 µM (inactive) | –
5 | CSc1nc2c(ncn2C2OCC(O)C(O)C2O)c(=O)n1C (configuration not stated) | > 100 µM (inactive) | > 100 µM (inactive) | – | – | – | > 100 µM (inactive) | > 100 µM (inactive) | –
6 | [N-]=[N+]=Nc1c(C=O)c(=O)n2c3c(cccc13)CCC2 | 13.6 µM (inactive) | 13.8 µM (inactive) | 4.86 µM (inactive) | 3.93 µM (inactive) | 3.44 µM (inactive) | – | – | –
7 | O=P1(N2CCOCC2)OCCO1 | > 100 µM (inactive) | > 100 µM (inactive) | – | > 100 µM (inactive) | > 100 µM (inactive) | – | – | –
8 | C=C/C(C)=C/[C@H](C)C(=O)C[C@H](O)CC1CC(=O)NC(=O)C1 | 30.9 µM (inactive) | 34.5 µM (inactive) | – | – | – | 19 µM (inactive) | 27.4 µM (inactive) | –
9 | CN(C(=O)c1ccc(OCCCC(=O)O)c(Cl)c1Cl)C1CCCC1 | > 89.5 µM (inactive) | > 100 µM (inactive) | – | – | – | > 73.1 µM (inactive) | > 100 µM (inactive) | –
10 | CCSc1nc(N)c2c(-c3ccc(OC)c(OC)c3)c3c(nc2n1)CCCC3 | – | > 100 µM (inactive) | > 100 µM (inactive) | – | > 100 µM (inactive) | – | – | –
11 | COc1cc(C2c3cc4c(cc3[C@@H](Nc3cccc(C(C)=O)c3)C3COC(=O)[C@H]23)OCO4)cc(OC)c1O (some centres not stated) | 0.236 µM (active) | 0.411 µM (active) | – | – | – | 1 µM (active) | 2.75 µM (inactive) | –
12 | COC(=O)C1CCC(=O)N1/C(C)=N/NC(=O)Nc1ccc(Cl)c(Cl)c1 (configuration not stated) | > 100 µM (inactive) | > 100 µM (inactive) | – | > 100 µM (inactive) | 21 µM (inactive) | – | > 100 µM (inactive) | 28 µM (inactive)
13 | CN1CC=C(c2cccn2C)CC1 | – | > 100 µM (inactive) | > 100 µM (inactive) | > 100 µM (inactive) | > 100 µM (inactive) | – | – | –
14 | CCOC(=O)c1c(-c2ccccc2)c(C)cn1C | – | – | – | > 10 µM (inactive) | > 10 µM (inactive) | – | – | –
15 | COc1ccc2cc1Oc1ccc(cc1)C[C@H]1c3cc(c(OC)cc3CCN1C)Oc1c(O)c(OC)cc3c1[C@H](C2)N(C)CC3 [FANGCHINOLINE] | 18 µM (inactive) | 13.6 µM (inactive) | – | – | – | 32.2 µM (inactive) | 40.7 µM (inactive) | –
16 | C=C1OC(=O)[C@]2([C@@H](/C=C/C)C=CC(=O)[C@H]2O)[C@@H]1O | – | > 100 µM (inactive) | > 100 µM (inactive) | > 100 µM (inactive) | > 100 µM (inactive) | – | – | –
17 | NC(=O)C1(c2ccccc2)Nc2ccccc2S1 (configuration not stated) | – | > 100 µM (inactive) | – | – | > 100 µM (inactive) | > 100 µM (inactive) | – | > 100 µM (inactive)
18 | COP(=O)(OC)[C@H](O)[C@H]1C[C@@H]1c1ccccc1 | > 100 µM (inactive) | > 100 µM (inactive) | > 100 µM (inactive) | – | > 100 µM (inactive) | – | – | –
